Here are results for one substance from US4231923A, “Assay method and compounds” (Burroughs Wellcome Co., priority 1977, dated 1980).

In this assay the target is Opiate receptor. Nature of the assay: Opiate receptor binding (IC50) by the method of Pasternak et al. using tritiated naloxone, absence of sodium ions. To be noted: method indicated in Example 1 (tritiated naloxone, absence of sodium ions, 4° C., pH 7.4); Table 2. How it is done: *Method of Pasternak, G. W. et al., Molecular Pharmacology, 11, 340-351
(1975) using tritiated naloxone and in the absence of sodium ions; assays
trishydrochloric acid buffer (50 mM, pH 7.4).
(§1) The opiate receptor IC50 (M) was ascertained by the method indicated in Example 1.
as §1

In the case of H.Try.Gly.Gly.Phe.D-Met.OMe HCl [(Y)], the IC50 is 0.06 µM.
